The text below walks through data of patent US20240150377A1, “MODULATORS OF CYSTIC FIBROSIS TRANSMEMBRANE CONDUCTANCE REGULATOR” (VERTEX PHARMACEUTICALS INCORPORATED, priority 2020, published 2024).

SMILES strings stand for the structures. Read-outs that look alike come from different tables or passages of the source.

This assay addresses T1, CFTR (Homo sapiens, UniProt P13569, DEL508-508).
T1 construct: endogenous in cells; host or cells: primary human bronchial epithelial cells from CF subjects (F508del/MF-HBE), differentiated at air-liquid interface
Kind of assay: HBE assay: Ussing chamber assay of CFTR-mediated short-circuit currents. The class given is cell-based. The settings on record: for EC50: read-out: HBE EC50; for activation at 10 µM: read-out: HBE Activity at 10 μM (%). As for the experimental part: 1. Ussing Chamber Assay of CFTR-Mediated Short-Circuit Currents
Ussing chamber experiments were performed using human bronchial epithelial (HBE) cells derived from CF subjects heterozygous for F508del and a minimal function CFTR mutation (F508del/MF-HBE) and cultured as previously described (Neuberger T, Burton B, Clark H, Van Goor F Methods Mol Biol 2011:741:39-54). After four days the apical media was removed, and the cells were grown at an air liquid interface for >14 days prior to use.
(§1) To isolate the CFTR-mediated short-circuit (ISC) current, F508del/MF-HBE grown on Costar® Snapwell™ cell culture inserts were mounted in an Ussing chamber and the transepithelial ISC was measured under voltage-clamp recording conditions (Vhold=0 mV) at 37° C. The basolateral solution contained (in mM) 145 NaCl, 0.83 K2HPO4, 3.3 KH2PO4, 1.2 MgCl2, 1.2 CaCl2), 10 Glucose, 10 HEPES (pH adjusted to 7.4 with NaOH) and the apical solution contained (in mM) 145 NaGluconate, 1.2 MgCl2, 1.2 CaCl2), 10 glucose, 10 HEPES (pH adjusted to 7.4 with NaOH) and 30 μM amiloride to block the epithelial sodium channel. Forskolin (20 μM) was added to the apical surface to activate CFTR, followed by apical addition of a CFTR inhibitor cocktail consisting of BPO, GlyH-101, and CFTR inhibitor 172 (each at 20 μM final assay concentration) to specifically isolate CFTR currents. The CFTR-mediated ISC (μA/cm^2) for each condition was determined from the peak forskolin response to the steady-state current following inhibition.
2. Identification of Corrector Compounds
The activity of the CFTR corrector compounds on the CFTR-mediated ISC was determined in Ussing chamber studies as described above. The F508del/MF-HBE cell cultures were either incubated with the corrector compounds at a range of concentrations in combination with 1 μM Ivacaftor or were incubated with the corrector compounds at a single fixed concentration of 10 μM in combination with 1 μM Ivacaftor for 18-24 hours at 37° C. and in the presence of 20% human serum. The concentration of corrector compounds with 1 μM Ivacaftor during the 18-24 hours incubations was kept constant throughout the Ussing chamber measurement of the CFTR-mediated ISC to ensure compounds were present throughout the entire experiment.
Ussing Chamber Assay of CFTR-mediated short-circuit currents
Ussing chamber experiments were performed using human bronchial epithelial (HIBE) cells derived from CF subjects heterozygous for F508del and a minimal function CFTR mutation (F508del/MIF-HIBE) and cultured as previously described (Neuberger T, Burton B, Clark H, Van Goor F Methods Mol Biol 2011:741:39-54). After four days the apical media was removed, and the cells were grown at an air liquid interface for >14 days prior to use.
as §1, with “KH2PO4,” for “K2HPO4,”
Identification of Corrector Compounds

Setting [1] is: Table 11, read-out: HBE Max Activity (%).
[2] abbreviates: HBE assay, read-out: HBE Max activity (%).
[3] abbreviates: Table 12, read-out: HBE Max Activity (%).
Where [4] appears, read: Table 13, read-out: HBE Max Activity (%).
[5] abbreviates: Table 10, read-out: HBE Max activity (%).

T1 sequence (P13569 with tags, fused parts or gaps DEL508-508): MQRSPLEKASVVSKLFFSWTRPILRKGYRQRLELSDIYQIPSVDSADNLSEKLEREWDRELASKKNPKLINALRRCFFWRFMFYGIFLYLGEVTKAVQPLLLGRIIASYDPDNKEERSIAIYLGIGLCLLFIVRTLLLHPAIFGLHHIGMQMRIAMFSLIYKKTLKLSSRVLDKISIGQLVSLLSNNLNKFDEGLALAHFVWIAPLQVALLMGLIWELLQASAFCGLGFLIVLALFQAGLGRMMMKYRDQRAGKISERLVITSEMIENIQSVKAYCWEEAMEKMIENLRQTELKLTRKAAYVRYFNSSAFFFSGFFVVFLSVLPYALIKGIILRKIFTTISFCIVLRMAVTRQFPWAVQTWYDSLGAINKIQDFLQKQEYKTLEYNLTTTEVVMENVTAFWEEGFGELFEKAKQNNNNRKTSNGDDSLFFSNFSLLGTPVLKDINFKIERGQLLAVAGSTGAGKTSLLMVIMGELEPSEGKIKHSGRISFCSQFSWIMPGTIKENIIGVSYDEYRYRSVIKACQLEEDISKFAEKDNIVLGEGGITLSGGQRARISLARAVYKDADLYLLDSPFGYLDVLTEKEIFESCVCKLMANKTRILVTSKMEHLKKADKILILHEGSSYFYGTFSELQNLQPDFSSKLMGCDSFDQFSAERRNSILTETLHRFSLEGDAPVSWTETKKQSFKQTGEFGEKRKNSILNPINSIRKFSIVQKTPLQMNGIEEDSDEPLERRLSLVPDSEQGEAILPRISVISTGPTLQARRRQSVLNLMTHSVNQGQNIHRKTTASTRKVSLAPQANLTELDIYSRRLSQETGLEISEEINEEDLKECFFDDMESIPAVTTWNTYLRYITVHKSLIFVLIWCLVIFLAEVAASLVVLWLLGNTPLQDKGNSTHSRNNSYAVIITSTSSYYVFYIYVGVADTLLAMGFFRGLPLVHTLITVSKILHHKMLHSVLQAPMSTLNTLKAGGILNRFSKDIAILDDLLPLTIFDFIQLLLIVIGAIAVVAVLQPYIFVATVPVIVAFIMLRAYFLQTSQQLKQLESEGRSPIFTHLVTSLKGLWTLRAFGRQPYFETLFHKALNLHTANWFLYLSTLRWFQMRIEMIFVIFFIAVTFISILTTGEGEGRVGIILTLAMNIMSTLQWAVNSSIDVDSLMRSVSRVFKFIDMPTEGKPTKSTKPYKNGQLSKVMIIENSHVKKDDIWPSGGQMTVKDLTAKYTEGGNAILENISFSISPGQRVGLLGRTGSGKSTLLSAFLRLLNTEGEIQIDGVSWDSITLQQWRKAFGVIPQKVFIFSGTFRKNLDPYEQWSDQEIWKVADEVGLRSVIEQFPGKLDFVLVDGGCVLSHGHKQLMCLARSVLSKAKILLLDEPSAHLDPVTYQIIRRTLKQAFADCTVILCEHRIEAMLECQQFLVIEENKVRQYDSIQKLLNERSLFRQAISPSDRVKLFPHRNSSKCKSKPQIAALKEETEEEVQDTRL

With `Cc1cccc(C)c1-c1cc2nc(n1)NS(=O)(=O)c1cccc(c1)C(=O)N(Cc1cccc(N3CCC(C)(C)CC3)n1)[C@H](CC(C)(C)C)CO2` [Compound 474], for the setting “Table 11”, the EC50 is < 1000 nM. Besides, the Emax under setting [1] was > 60%.

As for `Cc1cccc(C)c1-c1cc2nc(n1)NS(=O)(=O)c1cccc(c1)C(=O)N(CC(=O)N1C[C@@H](C)O[C@@H](C)C1)[C@H](CC(C)(C)C)CO2` [Compound 199], the activation at 10 µM (Table 13, at 10 μM) is > 600%.

Turning to `COC1CCN(c2cccc(CN3C(=O)c4cccc(c4)S(=O)(=O)Nc4nc(cc(-c5c(C)cccc5C)n4)OC[C@H]3CC(C)(C)C)n2)C1` (stereo partly shown) [Compound 625], for the setting “Table 11”, the EC50 is < 1000 nM. For the same compound, the Emax under setting [1] was > 60%.

As for `Cc1cccc(C)c1-c1cc2nc(n1)NS(=O)(=O)c1cccc(c1)C(=O)N(CC(=O)N(C)CC1CCCC1)[C@H](CC(C)(C)C)CO2` [Compound 229], the activation at 10 µM (Table 12, at 10 μM) is > 600%.

Take `Cc1cccc(C)c1-c1cc2nc(n1)NS(=O)(=O)c1cccc(c1)C(=O)N(Cc1cccc(N3[C@H](C)CC[C@@H]3C)n1)[C@H](CC(C)(C)C)CO2` (stereo in doubt) [Compound 1401]: the EC50 (HBE assay) was < 1000 nM. Under setting [2], the Emax is > 60%.

In the case of `Cc1cccc(C)c1-c1cc2nc(n1)NS(=O)(=O)c1cccc(c1)C(=O)N(Cc1nccc(N(C)C3CCC3)n1)[C@H](CC(C)(C)C)CO2` [Compound 627], the EC50 (Table 11) was < 1000 nM. For the same compound, the Emax under setting [1] was > 60%.

As to `COCCN(c1cncc(CN2C(=O)c3cccc(c3)S(=O)(=O)Nc3nc(cc(-c4c(C)cccc4C)n3)OC[C@H]2CC(C)(C)C)n1)C1CC2(CC2)C1` [Compound 1394], for the setting “HBE assay”, the EC50 was < 1000 nM. The Emax under setting [2] was > 60%.

For `Cc1cccc(C)c1-c1cc2nc(n1)NS(=O)(=O)c1cccc(c1)C(=O)N(Cc1cccc(N3CCC[C@H]3C)n1)[C@H](CC(C)C)CO2` [Compound 573], the EC50 (Table 12) was < 1000 nM. Also, the Emax under setting [3] was > 60%.

Take `Cc1cccc(C)c1-c1cc2nc(n1)NS(=O)(=O)c1cccc(c1)C(=O)N(Cc1ncc(N3CC(C)(C)C3)cn1)[C@H](CCC(C)C)CO2` [Compound 1309, (11R)-12-[[5-(3,3-Dimethylazetidin-1-yl)pyrimidin-2-yl]methyl]-6-(2,6-dimethylphenyl)-11-isopentyl-2,2-dioxo-9-oxa-2λ^6-thia-3,5,12,19-tetrazatricyclo[12.3.1.14,8]nonadeca-1(18),4(19),5,7,14,16-hexaen-13-one]: the activation at 10 µM (HBE assay, 10 μM) was > 60%.

As for `Cc1cccc(C)c1-c1cc2nc(n1)NS(=O)(=O)c1cccc(c1)C(=O)N(Cc1nc(N(C)C)cc(N(C)C)n1)[C@H](CC(C)(C)C)CO2` [Compound 322], the EC50 (Table 12) was < 1000 nM. Under setting [3], the Emax is > 60%.

Take `Cc1cccc(C)c1-c1cc2nc(n1)NS(=O)(=O)c1cccc(c1)C(=O)N(Cc1ccc([C@@H](O)CO)cn1)[C@H](CC(C)(C)C)CO2` [Compound 1151]: where the note is “Table 13”, the EC50 fell in the range of 1000 to 3000 nM. Also, the Emax under setting [4] was > 60%.

In the case of `Cc1cc(C)nc(CN2C(=O)c3cccc(c3)S(=O)(=O)Nc3nc(cc(-c4c(C)cccc4C)n3)OC[C@H]2CC(C)(C)C)n1` [Compound 1009], for the setting “Table 12”, the EC50 is < 1000 nM. Further, the Emax under setting [3] is > 60%.

For the compound `Cc1cccc(C)c1-c1cc2nc(n1)NS(=O)(=O)c1cccc(c1)C(=O)N(Cc1ncc(N3CC4CCC3C4)cn1)[C@H](CC(C)(C)C)CO2` (stereo partly shown) [Compound 874], the EC50 (Table 12) was < 1000 nM. For the same compound, the Emax under setting [3] is > 60%.

With `Cc1cccc(C)c1-c1cc2nc(n1)NS(=O)(=O)c1cccc(c1)C(=O)N(Cc1ccc(N3CC4(COC4)C3)cn1)[C@H](CC(C)(C)C)CO2` [Compound 1063], the EC50 (Table 13) was < 1000 nM. Further, the Emax under setting [4] is > 60%.

Consider `Cc1cccc(C)c1-c1cc2nc(n1)NS(=O)(=O)c1cccc(c1)C(=O)N(CC(=O)N1C[C@H](C)C[C@H](C)C1)[C@H](CC(C)(C)C)CO2` [Compound 181], for which, where the note is “Table 13, at 10 μM”, the activation at 10 µM was > 600%.

As to `Cc1cccc(C)c1-c1cc2nc(n1)NS(=O)(=O)c1cccc(c1)C(=O)N(CC1CCCC(C)(C)O1)[C@H](CC(C)(C)C)CO2` (single isomer, unassigned) [Compound 19], the activation at 10 µM (Table 11, at 10 μM) was > 60%.

On to `Cc1cccc(C)c1-c1cc2nc(n1)NS(=O)(=O)c1cccc(c1)C(=O)N(Cc1cccc3ccnn13)[C@H](CC(C)(C)C)CO2` [Compound 878], for which the activation at 10 µM (Table 12, at 10 μM) is > 600%.

Regarding `Cc1cccc(C)c1-c1cc2nc(n1)NS(=O)(=O)c1cccc(c1)C(=O)N(Cc1ccc(N(C)C)cn1)[C@H](CC(C)(C)C)CO2` [Compound 503], the EC50 (Table 10) is < 1000 nM. For the same compound, the Emax under setting [5] is > 60%.

`Cc1cccc(C)c1-c1cc2nc(n1)NS(=O)(=O)c1cccc(c1)C(=O)N(Cc1ncc(N3CCC(C)(C)CC3)cn1)[C@H](CC1CC1)CO2` [Compound 462]: the EC50 (Table 12) was < 1000 nM. The Emax under setting [3] was > 60%.

Turning to `Cc1cccc(C)c1-c1cc2nc(n1)NS(=O)(=O)c1cccc(c1)C(=O)N(Cc1ccc(-c3c(C)n[nH]c3C)cn1)[C@H](CC(C)(C)C)CO2` [Compound 298], the EC50 (Table 10) fell in the range of 1000 to 3000 nM. The Emax under setting [5] is > 60%.

`Cc1cccc(C)c1-c1cc2nc(n1)NS(=O)(=O)c1cccc(c1)C(=O)N(Cc1ncc(C(C)C)n1C)[C@H](CC(C)(C)C)CO2` [Compound 266]: the activation at 10 µM (Table 12, at 10 μM) is > 600%.

In the case of `Cc1ccc(N2CCCC2C)nc1CN1C(=O)c2cccc(c2)S(=O)(=O)Nc2nc(cc(-c3c(C)cccc3C)n2)OC[C@H]1CC(C)(C)C` (stereo in doubt) [Compound 1346], under “HBE assay”, the EC50 was < 1000 nM. Further, the Emax under setting [2] is > 60%.

For `Cc1cccc(C)c1-c1cc2nc(n1)NS(=O)(=O)c1cccc(c1)C(=O)N(Cc1ncc(N3CCC(C)(C)C3)cn1)[C@H](CC1CC1)CO2` [Compound 1464], where the note is “HBE assay”, the EC50 was < 1000 nM. Further, the Emax under setting [2] is > 60%.

Turning to `Cc1cccc(C)c1-c1cc2nc(n1)NS(=O)(=O)c1cccc(c1)C(=O)N(Cc1ncc(N3CCC(C(C)(C)C)C3)cn1)[C@H](CC(C)(C)C)CO2` (stereo partly shown) [Compound 875], the EC50 (Table 12) is < 1000 nM. The Emax under setting [3] was > 60%.

Consider `Cc1cccc(C)c1-c1cc2nc(n1)NS(=O)(=O)c1cccc(c1)C(=O)N(Cc1ccc(N3CCN(C)CC3)cn1)[C@H](CC(C)(C)C)CO2` [Compound 478], for which the Emax under setting [5] was > 60%.

Regarding `Cc1cccc(C)c1-c1cc2nc(n1)NS(=O)(=O)c1cccc(c1)C(=O)N(Cc1ncc(N3CCC(F)(F)C3)cn1)[C@H](CC1CC1)CO2` [Compound 1469], the EC50 (HBE assay) was < 1000 nM. For the same compound, the Emax under setting [2] is > 60%.

With `Cc1cccc(C)c1-c1cc2nc(n1)NS(=O)(=O)c1cccc(c1)C(=O)N(CC1CCC(N3CCOCC3)CC1)[C@H](CC(C)(C)C)CO2` (single isomer, unassigned) [Compound 153], the EC50 (Table 10) was < 1000 nM.

As to `Cc1cccc(C)c1-c1cc2nc(n1)NS(=O)(=O)c1cccc(c1)C(=O)N(CC(=O)N1CCN(C(C)C)CC1)[C@H](CC(C)(C)C)CO2` [Compound 187], where the note is “Table 13, at 10 μM”, the activation at 10 µM is > 600%.

In general, EC50 refers to the concentration that produces a half-maximal response.
